From article PMC7187626 (Antimicrobial Agents and Chemotherapy, 2019)
Read-outs that look alike come from different tables or passages of the source.

Key:
[1] = Noncompartmental pharmacokinetic analysis of plasma concentrations after single oral dose of artefenomel and DSM265 in combination; type: in vivo, human; settings: for Cmax / AUC(0-t) / AUC(0-inf) / Vd/F / Tmax / half-life: human, plasma
Procedure: Plasma samples were analyzed by liquid chromatography-tandem mass spectrometry (HPLC-MS/MS) as previously described ([2], [4]). The PK parameters determined using noncompartmental analysis were the maximum plasma concentration (Cmax), the time point when Cmax was reached (tmax), the area under the concentration-time curve up to last time point measure (AUC0–last), the area under the concentration-time curve extrapolated to infinity (AUC0–∞), the elimination half-life (t1/2), the apparent clearance (CL/F), and the apparent volume of distribution associated with the terminal elimination phase, where F is bioavailability (Vz/F). The PD variables of interest in this study were the parasite reduction ratio (PRR) and parasite clearance half-life. These provide an estimate of the efficacy of an antimalarial treatment; with the former being the ratio of the parasite density decrease over a 48-h period (expressed as the log10 transformed cohort-specific PRR48 [log10 PRR48]). Noncompartmental PK analysis was performed using PKanalix (version 2019R1, Lixoft SAS, Abtony, France). The area under the concentration-time curve was determined using the linear log trapezoidal method in which linear calculation was used before maximum concentration (Cmax) and logarithmic formula for after Cmax. The slope of the terminal elimination phase (λz) was estimated via a linear regression between log concentrations and time. All parameters were summarized using geometric mean or median and range.

[2] = test system: P. falciparum blood-stage malaria parasites; settings: monotherapy, cited from earlier work
[3] = oral, cohort 1 (n = 8), 200 mg artefenomel plus 100 mg DSM265, plasma, read-out: Cmax, range
[4] = oral, cohort 1 (n = 8), 200 mg artefenomel plus 100 mg DSM265, read-out: AUC0–last, geometric mean
[5] = oral, cohort 1 (n = 8), 200 mg artefenomel plus 100 mg DSM265, read-out: AUC0–last, range
[6] = oral, cohort 1 (n = 8), 200 mg artefenomel plus 100 mg DSM265, read-out: AUC0–∞, geometric mean
[7] = oral, cohort 1 (n = 8), 200 mg artefenomel plus 100 mg DSM265, read-out: AUC0–∞, range
[8] = oral, cohort 1 (n = 8), 200 mg artefenomel plus 100 mg DSM265, read-out: Vz/F (apparent volume of distribution, terminal phase), geometric mean
[9] = oral, cohort 1 (n = 8), 200 mg artefenomel plus 100 mg DSM265, read-out: Vz/F, range
[10] = oral, cohort 1 (n = 8), 200 mg artefenomel plus 100 mg DSM265, read-out: tmax, median
[11] = oral, cohort 1 (n = 8), 200 mg artefenomel plus 100 mg DSM265, read-out: tmax, range
[12] = oral, cohort 2 (n = 5), 200 mg artefenomel plus 50 mg DSM265, plasma, read-out: Cmax, range
[13] = oral, cohort 2 (n = 5), 200 mg artefenomel plus 50 mg DSM265, read-out: AUC0–last, geometric mean
[14] = oral, cohort 2 (n = 5), 200 mg artefenomel plus 50 mg DSM265, read-out: AUC0–last, range
[15] = oral, cohort 2 (n = 5), 200 mg artefenomel plus 50 mg DSM265, read-out: AUC0–∞, geometric mean
[16] = oral, cohort 2 (n = 5), 200 mg artefenomel plus 50 mg DSM265, read-out: AUC0–∞, range
[17] = oral, cohort 2 (n = 5), 200 mg artefenomel plus 50 mg DSM265, read-out: Vz/F (apparent volume of distribution, terminal phase), geometric mean
[18] = oral, cohort 2 (n = 5), 200 mg artefenomel plus 50 mg DSM265, read-out: Vz/F, range
[19] = oral, cohort 2 (n = 5), 200 mg artefenomel plus 50 mg DSM265, read-out: tmax, median
[20] = oral, cohort 2 (n = 5), 200 mg artefenomel plus 50 mg DSM265, read-out: tmax, range
[21] = po, cohort 1 (n = 8), single oral dose 200 mg artefenomel plus 100 mg DSM265, plasma, read-out: Cmax, geometric mean
[22] = po, cohort 2 (n = 5), single oral dose 200 mg artefenomel plus 50 mg DSM265, plasma, read-out: Cmax, geometric mean
[23] = cohort 1 (n = 8), 200 mg artefenomel plus 100 mg DSM265
[24] = cohort 2 (n = 5), 200 mg artefenomel plus 50 mg DSM265

Cmax [1, 3] [ng/mL]	AUC(0-t) [1, 4] [µg·h/mL]	AUC(0-t) [1, 5] [µg·h/mL]	AUC(0-inf) [1, 6] [µg·h/mL]	AUC(0-inf) [1, 7] [µg·h/mL]	Vd/F [1, 8] [L]	Vd/F [1, 9] [L]	Tmax [1, 10] [h]	Tmax [1, 11] [h]	Cmax [1, 12] [ng/mL]	AUC(0-t) [1, 13] [µg·h/mL]	AUC(0-t) [1, 14] [µg·h/mL]	AUC(0-inf) [1, 15] [µg·h/mL]	AUC(0-inf) [1, 16] [µg·h/mL]	Vd/F [1, 17] [L]	Vd/F [1, 18] [L]	Tmax [1, 19] [h]	Tmax [1, 20] [h]	Cmax [1, 21] [ng/mL]	Cmax [1, 22] [ng/mL]	SMILES	other results
150 to 597	3.01	1.11 to 4.96	3.08	1.11 to 5.09	8900	4810 to 16000	3	2 to 5	307 to 522	3.25	2.66 to 5.7	3.32	2.68 to 5.91	7990	4590 to 14300	5	1 to 6	372	412	c1cc([C@H]2CC[C@]3(CC2)OO[C@]2(O3)C3CC4CC(C3)CC2C4)ccc1OCCN1CCOCC1 [Artefenomel]	recrudescence ([2]; single dose 200 mg): recrudescence occurred in all subjects; recrudescence, subjects ([2]; single dose 500 mg): 50%
4150 to 6880	434	329 to 502	514	360 to 634	28	22 to 42	2	1 to 3	2150 to 4340	232	209 to 281	271	240 to 309	26	19 to 34	2	1 to 2	5440	3580	Cc1cc(Nc2ccc(S(F)(F)(F)(F)F)cc2)n2nc(C(C)(F)F)nc2n1 [DSM265]	CL/F (apparent clearance), geometric mean [1, 23]: 0.19 L/h; CL/F, range [1, 23]: 0.16 to 0.28 L/h; CL/F (apparent clearance), geometric mean [1, 24]: 0.18 L/h; CL/F, range [1, 24]: 0.16 to 0.21 L/h; half-life ([1]; oral, cohort 1 (n = 8), 200 mg artefenomel plus 100 mg DSM265, read-out: t1/2 (elimination half-life), geometric mean (converted)): 100 h; half-life ([1]; oral, cohort 1 (n = 8), 200 mg artefenomel plus 100 mg DSM265, read-out: t1/2, range): 76 to 185 h; half-life ([1]; oral, cohort 2 (n = 5), 200 mg artefenomel plus 50 mg DSM265, read-out: t1/2 (elimination half-life), geometric mean (converted)): 97 h; half-life ([1]; oral, cohort 2 (n = 5), 200 mg artefenomel plus 50 mg DSM265, read-out: t1/2, range): 75 to 134 h; parasite clearance half-life ([2]; single dose 150 mg): 9.4 h; recrudescence ([2]; single dose 150 mg): recrudescence occurred in all subjects; parasite clearance half-life ([2]; single dose 400 mg): 5.2 h; recrudescence ([2]; single dose 400 mg): no recrudescence occurred
